According to patent US4753881A, “Purified enzyme and process therefor” (Eli Lilly and Company, priority 1986, dated 1988):

Key:
[1] = target: T1, hydroxylase activity of the expandase-hydroxylase enzyme (Hapsidospora chrysogena, UniProt P11935); assay: Enzyme activity assay (HPLC): hydroxylase-catalyzed reaction, DAC from DAOC; assay type: biochemical, Cephalosporium acremonium; conditions: for Effect on hydroxylase function of the purified enzyme: present in the incubation mixture; for Maximal reactivation/stimulation of hydroxylase activity, initial to final activity: DTT 1.0 mM, ascorbate 0.25 mM, ATP 0.05 mM, purified enzyme (step 3)
T1 construct: prepared by sonicating fresh cell suspensions of Cephalosporium acremonium in buffer at pH 7-8; endogenous in cells; host or cells: Cephalosporium acremonium cells (crude cell extract, then chromatographic purification)
T1 sequence (P11935 1-332): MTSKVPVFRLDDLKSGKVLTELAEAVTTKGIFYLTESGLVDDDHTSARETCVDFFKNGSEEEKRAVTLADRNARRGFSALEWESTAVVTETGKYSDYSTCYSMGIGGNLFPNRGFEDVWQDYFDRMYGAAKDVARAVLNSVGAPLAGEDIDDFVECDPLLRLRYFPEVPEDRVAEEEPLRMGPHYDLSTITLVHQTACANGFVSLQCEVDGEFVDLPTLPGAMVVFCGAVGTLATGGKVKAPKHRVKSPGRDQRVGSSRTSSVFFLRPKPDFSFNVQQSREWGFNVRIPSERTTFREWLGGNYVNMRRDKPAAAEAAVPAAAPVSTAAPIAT
Excerpt: (§1) The activity of the enzyme, which is a reflection of its purity, is expressed herein in units (U) of activity. One unit of expandase activity is defined as the amount of the enzyme required to cause formation of 1 μmole of DAOC plus DAC per minute from penicillin N. One unit of hydroxylase activity is defined as the amount of enzyme required to cause formation of 1 μmole of DAC per minute from DAOC.
(§2) The purity of the enzyme and the extent of purification during the course of the process can be measured by determining the expandase and hydroxylase activities of the chromatographic fractions via high performance liquid chromatography (HPLC) and by analyzing protein bands of chromatographic fractions via SDS-PAGE. The expandase-catalyzed reaction is conducted for 15 minutes at 30° C. with 0.28 mM penicillin N, 0.60 mM α-ketoglutarate (αKG), 0.06 mM ferrous sulfate, […], 1.00 mM dithiothreitol, 0.05 mM ATP and 0.0003-0.003 units of the enzyme in 1 ml of 50 mM Tris-HCl, pH 7.5. The hydroxylase-catalyzedreaction is conducted at 36° C. in the same medium with deacetoxycephalosporin C at a concentration of 0.05 mM instead of penicillin N.
(§3) The enzymatic reactions were interrupted by the addition of 1 ml of ethyl alcohol. The precipitate is separated by centrifugation at 4,000×g for 5 minutes and the supernatant containing the enzyme reaction products assayed by HPLC as follows. The expandase activity is determined by monitoring formation of both DAOC and DAC from penicillin N because of the apparent bifunctionality of the enzyme. The hydroxylase activity is determined by monitoring the formation of DAC from DAOC.
(§4) Aliquots (20 to 100 μl ) of the supernatant solutions are assayed for DAOC and DAC by HPLC using external standards.
A preferred HPLC system comprises the components: Model 721 system controller, Model 730 data module, Model 510EF pumps, Model 710B Waters Intelligent Sample Processor and a Lambda-Max Model 481 LC spectrophotometer (Waters Assoc., Milford, Mass.). DAC and DAOC are preferably separated by a radially packed compressed μBondapak-NH4column (0.8×10 cm) (Waters Assoc.) with a mobile phase of 2% acetic acid-0-4% methyl alcohol-6-7% acetonitrile-87-92% water; pH 3.8, a flow rate of 1.5-2.0 ml/min. and detection at 260 nm (cephalosporin chromophore). The assays are reproducible with 2% deviations for duplicate analyses of both the expandase and the hydroxylase catalyzed reactions. […]

[2] = target: T2, deacetoxycephalosporin C synthetase (expandase) (Hapsidospora chrysogena, UniProt P11935); assay: Enzyme activity assay (HPLC): expandase-catalyzed reaction, DAOC plus DAC from penicillin N; assay type: biochemical, Cephalosporium acremonium; conditions: for Effect on expandase function of the purified enzyme: present in the incubation mixture; for Maximal reactivation/stimulation of expandase activity, initial to final activity: DTT 1.0 mM, ascorbate 0.25 mM, ATP 0.05 mM, purified enzyme (step 3)
T2 construct: prepared by sonicating fresh cell suspensions of Cephalosporium acremonium in buffer at pH 7-8; endogenous in cells; host or cells: Cephalosporium acremonium cells (crude cell extract, then chromatographic purification)
T2 sequence (P11935 1-332): T1 sequence (P11935 1-332)
Excerpt: as §1, §2, §3, §4
A preferred HPLC system comprises the components: Model 721 system controller, Model 730 data module, Model 510EF pumps, Model 710B Waters Intelligent Sample Processor and a Lambda-Max Model 481 LC spectrophotometer (Waters Assoc., Milford, Mass.). DAC and DAOC are preferably separated by a radially packed compressed μBondapak-NH4column (0.8×10 cm) (Waters Assoc.) with a mobile phase of 2% acetic acid-0-4% methyl alcohol-6-7% acetonitrile-87-92% water; pH 3.8, a flow rate of 1.5-2.0 ml/min. and detection at 260 nm (cephalosporin chromophore). The assays are reproducible with 2% deviations for duplicate analyses of both the expandase and the hydroxylase catalyzed reactions.
For expandase assays, quantitation for DAC (in addition to that of DAOC) is corrected for penicillin N due to their coelution.

SMILES | Effect on hydroxylase function of the purified enzyme [1] | Effect on expandase function of the purified enzyme [2] | Reactivation of hydroxylase activity [1] | Maximal reactivation/stimulation of hydroxylase activity, initial to final activity [1] [U × 10^-3] | Reactivation of expandase activity [2] | Maximal reactivation/stimulation of expandase activity, initial to final activity [2] [U × 10^-3]
[Zn+2] [zinc ion] | inhibited | inhibited | – | – | – | –
O[C@H](CS)[C@H](O)CS (racemic) [DTT, dithiothreitol] | stimulated | stimulated | reversibly reactivated | 0 to 0.23 | reversibly reactivated | 0 to 50
Nc1ncnc2c1ncn2[C@@H]1O[C@H](COP(=O)(O)OP(=O)(O)OP(=O)(O)O)[C@@H](O)[C@H]1O [ATP] | stimulated | stimulated | – | 0.57 to 0.61 | – | 38 to 52
O=C1O[C@H]([C@@H](O)CO)C(O)=C1O [Ascorbate] | stimulated | stimulated | reversibly reactivated | 0 to 0.81 | reversibly reactivated | 0 to 90
O=C(O)c1cc(SSc2ccc([N+](=O)[O-])c(C(=O)O)c2)ccc1[N+](=O)[O-] [5,5'-dithiobis-2-nitrobenzoic acid] | inhibited | inhibited | – | – | – | –
